Results taken from ChEMBL document CHEMBL4811318, “Pyrrolo[1,2-a]quinoxal-5-inium salts and 4,5-dihydropyrrolo[1,2-a]quinoxalines: Synthesis, activity and computational docking for protein tyrosine phosphatase 1B” (Bioorg Med Chem, 2021).

Tests used:
[1] = molecular target: T1, Tyrosine-protein phosphatase non-receptor type 1 (Homo sapiens, UniProt P18031); test: Inhibition of PTP1B (unknown origin)
T1 sequence (P18031 whole entry): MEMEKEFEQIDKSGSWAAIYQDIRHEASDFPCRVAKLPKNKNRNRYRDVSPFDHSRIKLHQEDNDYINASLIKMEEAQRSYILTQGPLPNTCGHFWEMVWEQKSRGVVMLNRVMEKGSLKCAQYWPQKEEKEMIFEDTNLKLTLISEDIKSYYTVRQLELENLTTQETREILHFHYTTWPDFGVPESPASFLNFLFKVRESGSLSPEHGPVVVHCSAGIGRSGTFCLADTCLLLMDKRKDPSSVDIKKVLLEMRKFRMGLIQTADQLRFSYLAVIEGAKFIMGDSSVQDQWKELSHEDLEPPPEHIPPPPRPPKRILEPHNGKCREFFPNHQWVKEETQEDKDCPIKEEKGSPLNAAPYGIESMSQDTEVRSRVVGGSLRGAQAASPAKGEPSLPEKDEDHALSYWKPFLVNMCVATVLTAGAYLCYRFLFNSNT

[2] = tested on: HepG2; test: Cytotoxicity against human HepG2 cells assessed as […] cell viability at 50 uM measured after 24 hrs by MTT assay relative to control; type: cell-based; conditions: hepg2, 24 h
[3] = molecular target: T1, Tyrosine-protein phosphatase non-receptor type 1; test: Inhibition of recombinant human PTP1B (1 to 322 residues) expressed in Escherichia coli using pNPP as substrate
[4] = molecular target: T2, Tyrosine-protein phosphatase non-receptor type 1 (Homo sapiens) (UniProt P18031); test: Inhibition of recombinant human PTP1B (1 to 322 residues) expressed in Escherichia coli at 1 uM using IR5 (1142 to 1153 residues) as substrate incubated for 30 mins by spectrophotometry analysis relative to control
T2 sequence (whole entry): T1 sequence (P18031 whole entry)

[5] = species: Homo sapiens; test: Selectivity index, ratio of IC50 for recombinant human TC-PTP (2 to 315 residues) to IC50 for recombinant human PTP1B (1 to 322 residues) expressed in Escherichia coli
[6] = molecular target: T3, Tyrosine-protein phosphatase non-receptor type 2 (Homo sapiens, UniProt P17706); test: Inhibition of recombinant human TC-PTP (2 to 315 residues) expressed in Escherichia coli using pNPP as substrate
T3 sequence (P17706 whole entry): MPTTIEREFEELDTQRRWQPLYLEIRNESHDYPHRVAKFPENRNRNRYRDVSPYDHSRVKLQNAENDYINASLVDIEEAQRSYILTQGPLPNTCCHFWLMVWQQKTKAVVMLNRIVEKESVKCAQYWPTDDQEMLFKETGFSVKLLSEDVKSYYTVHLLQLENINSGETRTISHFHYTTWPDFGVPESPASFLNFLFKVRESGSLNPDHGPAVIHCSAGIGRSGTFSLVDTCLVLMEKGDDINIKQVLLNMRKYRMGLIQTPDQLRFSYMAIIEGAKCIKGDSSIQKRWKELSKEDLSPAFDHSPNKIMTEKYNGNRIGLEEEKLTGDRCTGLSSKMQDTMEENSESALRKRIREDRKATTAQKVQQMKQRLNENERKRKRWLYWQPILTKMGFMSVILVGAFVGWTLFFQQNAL

[7] = tested on: C2C12; test: Induction of glucose uptake in mouse C2C12 cells at 2 uM pretreated with insulin for 30 mins followed by compound treatment for 90 mins by fluorescence microplate reader assay relative to control; type: functional; conditions: 1.5 h
[8] = Stability of the compound measured after 2 months at 4 degreeC; type: physicochemical; conditions: 1460 h
[9] = Stability of the compound measured up to 5 days; type: physicochemical; conditions: 120 h; time <=5 day
[10] = Stability of the compound measured after 5 days; type: physicochemical; conditions: 120 h; time 5 day

| SMILES | IC50 [3] [nM] | inhibition [4] [%] | Activity [2] [%] | other results |
| --- | --- | --- | --- | --- |
| C=C(C)[C@@H]1CC[C@]2(C(=O)O)CC[C@]3(C)[C@H](CC[C@@H]4[C@@]5(C)CC[C@H](O)C(C)(C)[C@@H]5CC[C@]43C)[C@@H]12 [BETULINIC ACID] | – | – | – | IC50 [1]: 1500 nM |
| c1ccc(Cc2nc3ccccc3n3cccc23)cc1 | – | – | – | IC50 [1]: 240 nM |
| Cc1nc2cc(C(F)(F)F)ccc2n2cccc12 | > 10000 | – | > 90 | – |
| CCCC[n+]1c(C)c2cccn2c2ccccc21.[I-] | 1910 | 22 | > 90 | – |
| CC1Nc2cc(Cl)c(Cl)cc2-n2cccc21 (stereo not drawn) | 950 | 56 | > 90 | Ratio IC50 [5]: > 5.26; IC50 [6]: > 5000 nM; Activity [7]: 150% |
| Cc1nc2cc(Cl)c(Cl)cc2n2cccc12 | 570 | – | > 90 | Ratio IC50 [5]: > 43; IC50 [6]: > 25000 nM |
| COc1ccc2c(c1)[n+](C)c(C)c1cccn12.[I-] | > 10000 | 22 | > 90 | – |
| Cc1ccc2c(c1)[n+](C)c(C)c1cccn12.[I-] | > 10000 | 22 | > 90 | – |
| COc1ccc2c(c1)nc(C)c1cccn12 | > 10000 | – | > 90 | – |
| Cc1c2cccn2c2cc(Cl)ccc2[n+]1C.[I-] | 830 | 22 | > 90 | Ratio IC50 [5]: > 6.02; IC50 [6]: > 5000 nM |
| Cc1nc2ccc(Cl)cc2n2cccc12 | 600 | – | > 90 | Ratio IC50 [5]: > 41; IC50 [6]: > 25000 nM |
| CCCCCCS(=O)(=O)NC(=O)c1ccc(CSCc2ccc(-c3ccccc3)cc2)cc1 | – | – | – | IC50 [1]: 250 nM |
| CC1(C)CC[C@]2(C(=O)O)CC[C@@H]3C(=CC[C@H]4[C@H]3CC[C@@H]3[C@@H]4CC[C@H](O[C@@H]4O[C@H](CO)[C@@H](O)[C@H](O)[C@H]4O)C3(C)C)[C@@H]2C1 | – | – | – | IC50 [1]: 1400 nM |
| Cc1c2cccn2c2ccc(C(F)(F)F)cc2[n+]1C.[I-] | 580 | 22 | > 90 | Ratio IC50 [5]: 0.71; IC50 [6]: 410 nM |
| C=C(C)[C@@H]1CC[C@]2(C)CC[C@]3(C)[C@H](CC[C@@H]4[C@@]5(C)CC[C@H](O)C(C)(C)[C@@H]5CC[C@]43C)[C@@H]12 [LUPEOL] | – | – | – | IC50 [1]: 560 nM |
| Cc1cc2nc(C)c3cccn3c2cc1C | > 10000 | – | > 90 | – |
| Cc1ccc2c(c1)nc(C)c1cccn12 | > 10000 | – | > 90 | – |
| Cc1nc2ccccc2n2cccc12 | – | – | > 90 | Ratio IC50 [5]: 4; IC50 [6]: 3950 nM |

Second part, led by results:

| IC50 [3] [nM] | inhibition [4] [%] | SMILES | Activity [2] [%] | other results |
| --- | --- | --- | --- | --- |
| 1390 | 56 | COc1ccc2c(c1)NC(C)c1cccn1-2 (stereo not drawn) | > 90 | – |
| – | 56 | Cc1ccc2c(c1)NC(C)c1cccn1-2 (stereo not drawn) | – | – |
| 510 | 56 | CC1c2cccn2-c2ccccc2N1C (stereo not drawn) | > 90 | Ratio IC50 [5]: 0.98; IC50 [6]: 500 nM |
| – | 22 | Cc1cc2c(cc1C)[n+](C)c(C)c1cccn12.[I-] | > 90 | – |
| – | 56 | Cc1cc2c(cc1C)-n1cccc1C(C)N2 (stereo not drawn) | > 90 | – |
| – | 56 | CC1Nc2cc(C(F)(F)F)ccc2-n2cccc21 (stereo not drawn) | > 90 | – |
| 410 | 56 | CC1Nc2ccccc2-n2cccc21 (stereo not drawn) | > 90 | Stabilty [8]: Stable; Stabilty [9]: Stable; Stabilty [10]: Unstable |
| 320 | 22 | Cc1c2cccn2c2ccccc2[n+]1C.[I-] | > 90 | – |
| 450 | 56 | CC1Nc2ccc(Cl)cc2-n2cccc21 (stereo not drawn) | > 90 | Ratio IC50 [5]: > 11.1; IC50 [6]: > 5000 nM |
